“Also recorded” adds a separate entry of the source.
Tested on: corpus cavernosal strips (CCS)
Experiment: cGMP production in CCS (penile organ culture) in response to adenosine
Assay type: cell-based, mouse
Procedure: FIG. 18. Adenosine stimulated both cAMP and cGMP induction in corpus cavernosal smooth muscle cells (CCSM) via A2BR activation. (a) Adenosine receptor expression profile in purified primary CCSM. CCSM were purified from adult mouse penes. […] (b) CCSM were isolated and cultured from mouse penes. The cells were switched to serum-free medium and treated with different concentrations of adenosine with or without A2BR antagonist (MRS1706-10 μM), A2AR antagonist (ZM241385-50 nM) or A2AR agonist (CGS-21680-10 μM) alone for 10 min. Then cellular extracts were collected and cAMP levels were measured using an ELISA kit. […] After 10 min treatment, the cellular extracts were collected and cAMP levels were measured by using a commercial enzyme immunoassay kit (Amersham Pharmacia). […] 10 min after treatment, cellular extracts were collected and cGMP levels were measured by using a commercial enzyme immunoassay kit (Amersham Pharmacia). Data are expressed as mean±SE. *p<0.05, adenosine treated versus the control; **p<0.05, adenosine treated with MRS1706 versus the adenosine treated; ***p<0.05, CCS of A2BR-deficient mice treated with adenosine versus the CCS of wild type mice treated with adenosine. […] After 10 min treatment, the cellular extracts were collected and cAMP levels were measured by using a commercial enzyme immunoassay kit (Amersham Pharmacia). […]

For `Nc1ncnc2c1ncn2[C@@H]1O[C@H](CO)[C@@H](O)[C@H]1O` [adenosine], the cGMP production (CCS of A2BR-deficient mice) was “absent” and the cGMP production (wild type penile organ culture (CCS)) was “can increase cGMP production; also recorded: induced by adenosine in a dosage-dependent manner”.
